Results on six compounds are retold here after ChEMBL document CHEMBL1126116, “Synthesis and antibronchospastic activity of 8-alkoxy- and 8-(alkylamino)imidazo[1,2-a]pyrazines” (J Med Chem, 1992).

In data set [1] the test system is Mus musculus. Kind of data set: Locomotor activity (no. light beam crossings in 50 min) in mice by intravenous dose at 55 umol/kg. It counts as functional.
For data set [2], the species on record is Rattus norvegicus. Kind of data set: Inhibition of spontaneous contraction of isolated rat uterus. The following applies: read-out: ED50 (the source's name). The class given is functional.
The nature of data set [3]: Compound was tested for it's acute toxicity in mice when given orally. The class given is organism-based. The following applies: mouse, in vivo, po.
The species entered for data set [4] is Rattus norvegicus. Kind of data set: (§1) Inhibition of carbachol induced tracheal contraction. It counts as functional. To be noted: Trachea, read-out: ED50 (the source's name).
The next data set deals with Heart phosphodiesterase (Bos taurus, UniProt Q01061+P14100+E1BN64). Kind of data set: Inhibition of bovine heart phosphodiesterase. It counts as protein assay.
The subject of data set [5] is Mus musculus. Kind of data set: Locomotor activity (no. light beam crossings in 50 min) in mice by intravenous dose at 166 umol/kg. It counts as functional.
The species named for the next data set is Cavia porcellus. The description is as §1. The class given is functional. The following applies: Trachea, read-out: ED50 (the source's name).
Data set [6] in a line: Compound was tested for its acute toxicity in mice when given orally. The class given is organism-based. The following applies: mouse, in vivo, po.

Turning to `CNc1nc(Br)cn2cc(C#N)nc12`, the Activity with Mus musculus [1] is -64%. Moreover, the EC50 in the data set filed under Rattus norvegicus [2] and in the data set filed under Rattus norvegicus [4] was 2 µM each time. This compound also returned an LD50 in data set [3] of 500 µmol/kg. In addition, the IC50 on Heart phosphodiesterase was 70 µM.

Take `Cn1c(=O)c2nc[nH]c2n(C)c1=O.O` [THEOPHYLLINE]: the Activity with Mus musculus [5] is reported as 170%; in the data set on Mus musculus [1], 130%. The EC50 was 900 µM in the data set filed under Rattus norvegicus [2] and 920 µM in the data set listed under Rattus norvegicus [4]. Further, in data set [3], the LD50 came to 1900 µmol/kg. In addition, on Heart phosphodiesterase, the IC50 came to 92 µM.

For `CCNc1nc(Br)cn2ccnc12`, the Activity with Mus musculus [5] is -73%; in the data set on Mus musculus [1], -13%. Also, the EC50 in the data set listed under Rattus norvegicus [2] was 130 µM; in the data set listed under Rattus norvegicus [4] it was 65 µM. The LD50 in data set [3] worked out at 2900 µmol/kg. The IC50 on Heart phosphodiesterase was 81 µM.

Turning to `Nc1nc(Br)cn2ccnc12`, the results for the Activity with Mus musculus [5] and in the data set with Mus musculus [1] were -83% and -53%, respectively. Further, the EC50 in the data set listed under Rattus norvegicus [2] is 300 µM; in the data set filed under Rattus norvegicus [4] it was 93 µM. The compound also came in with an LD50 in data set [3] of 1300 µmol/kg. For the same compound, at Heart phosphodiesterase, the IC50 was found to be 267 µM.

Consider `CNc1nccn2c(Br)cnc12`, for which the results for the Activity with Mus musculus [5] and in the data set on Mus musculus [1] were -57% and -25%, respectively. The EC50 in the data set filed under Rattus norvegicus [2] turned out to be 100 µM; in the data set filed under Cavia porcellus, 97 µM. In data set [6], this compound showed an LD50 of 4200 µmol/kg. Besides, the IC50 against Heart phosphodiesterase came out at 337 µM.

Consider `CNc1nc(Br)cn2ccnc12`, for which the Activity was -83% with Mus musculus [5] and -75% in the data set on Mus musculus [1]. Further, the EC50 in the data set filed under Rattus norvegicus [2] was determined as 160 µM; in the data set filed under Rattus norvegicus [4], 24 µM. This compound also registered an LD50 in data set [3] of 2200 µmol/kg. The same compound showed an IC50 against Heart phosphodiesterase of 27 µM.
